This note sets out measurements from the OligoGym collection.

These antisense oligonucleotides have a phosphorothioate backbone; sugars and methylation of C are not fully specified.
Also: test concentration or dose not given here.

The target in the first data set is RHOG. The following applies: ASO.
With CAGCAGGATGGGCACATC, the remaining target (mRNA or protein) (fraction of control) was 0.8.
The same measure, in the same setting: next, AGCTGGATGAACTGGTCA: 0.77.
Still for that read-out and setting: as for CGCACGTTCTCATAGGAC, the figure is 0.76; as for TCTTCTGGACCCCTCTGG, 0.64; as for GTCAGTAGCGGAAAATGG, no less than 1.
Consider AGGGCAGTGGTGGCACAC, for which the remaining target (mRNA or protein) (fraction of control) amounted to 0.85.
On the same count and under the same terms, next, CCCTGCTGCGGTGTGATG: 0.56; ACACCATCCTGTTGCAGG: 0.77.
Same read-out and setting: next, GGGTGTCAGGCTGGGCTC: 0.85.
For the sequence GCATCGTGGGTGCAGTTG, the remaining target (mRNA or protein) (fraction of control) amounted to 0.53.
The same measure, in the same setting: as for ACATTCACCTTCTCAGGA, the figure is 0.8; as for TGGAGAAGGGAGAGAGCA, 0.68; as for ACAGCCTCGGCGAACACT, 0.94.
Still for that read-out and setting: as for GCAGCCTCCAAGCCAAGT, the figure is 0.58.
Still for that read-out and setting: as for GTCCCACAGGTTCAGGTT, the figure is 0.69.
TGTACGGAGGCGGTCATA showed a remaining target (mRNA or protein) (fraction of control) of 0.63.
On the same count and under the same terms, as for GGTTCACTGTGCGCCCGT, the figure is 0.84.
Turning to GTGCAGTTGCTGTAGTGA, the remaining target (mRNA or protein) (fraction of control) came to 0.9.
Still for that read-out and setting: as for CAATTCCAAGAGCAGCGA, the figure is 0.82.
The same measure, in the same setting: as for AAAAGGCATTCAGGGAAC, the figure is no less than 1.
The same measure, in the same setting: as for ACCTCTGGATGCCACTTG, the figure is 0.65; as for GACCTGGTGCCCCTCCCG, 0.65; as for CAATGGAGAAACAGATGA, no less than 1.
In turn, CCACCACGCACTTGATGC showed a remaining target (mRNA or protein) (fraction of control) of 0.86.
Turning to GAGGGCAGAGGTTAGAGA, the remaining target (mRNA or protein) (fraction of control) stood at 0.79.
The same measure, in the same setting: next, GTAGCGCACAGCGTGGAT: 0.65; ACGTTGGTCTGAGGGTAG: 0.62; GCGCGCTGTAATTGTCGA: 0.64.
The same measure, in the same setting: next, GGGTCCAACCTTGGCTTG: 0.42; ACCACAATAGGCAGCAAC: 0.69.
Same read-out and setting: next, GAACACTTCCTTGACACC: 0.69; TTGTGTAGCAGATGAGCA: 0.65.
Sequence CATAGGACGGCGGACTGG gave a remaining target (mRNA or protein) (fraction of control) of 0.83.
Same read-out and setting: as for CATTCGAGGTAGCGCACA, the figure is 0.61.

The target in a further data set is SUMO1. As to conditions: ASO.
As for AGATGTGTTGTCATTTTC, the remaining target (mRNA or protein) (fraction of control) is no less than 1.
On the same count and under the same terms, next, TTCTTTTGGAGTATGATT: no less than 1.
Same read-out and setting: as for CCCCTTCCCGACAGCACA, the figure is 0.92; as for GCAGTAACTTCCGCTACG, no less than 1.
The same measure, in the same setting: as for AGGATTGAGGGAAAAGAA, the figure is no less than 1.

The next data set has as its target IL15. As to conditions: ASO.
Sequence AGCTGGCTATGGCAAGGG registered a remaining target (mRNA or protein) (fraction of control) of 0.35.
The same measure, in the same setting: next, TCATCTTCTTGACAGAAA: no less than 1.
As for AAAAGAAAGGGAGGGAAT, the remaining target (mRNA or protein) (fraction of control) is no less than 1.
In the case of AGACATGAATGCCAGCTT, the remaining target (mRNA or protein) (fraction of control) was 0.26.
As to TTTAATCTTTACAATAAT, the remaining target (mRNA or protein) (fraction of control) is no less than 1.
For the sequence CTGTTTTAGGAAGCCCTG, the remaining target (mRNA or protein) (fraction of control) came out at 0.58.
The same measure, in the same setting: as for TTAGCTGCATCCCAAAAT, the figure is 0.48; as for GTATTGAAGAAGAGCTGG, no less than 1.
Still for that read-out and setting: next, ATTTAGGTAAGCTACTCT: 0.75.
In turn, TTTAGAAGTAAACACAAG came in with a remaining target (mRNA or protein) (fraction of control) of no less than 1.
The same measure, in the same setting: next, CCAGCTTCAGTTAGAAAA: no less than 1; ACACCTACCTTTTAATAA: no less than 1; GCCCTGCACTGAAACAGC: 0.39.
The same measure, in the same setting: as for CTGAACTGAGAGTCAGAT, the figure is 0.27.
For ATTAGAAGACAAACTGTT, the remaining target (mRNA or protein) (fraction of control) was no less than 1.
For ACTCTAGGCCCATAGCAA, the remaining target (mRNA or protein) (fraction of control) came to 0.58.
Same read-out and setting: next, CCAATACCATGAAGGCAT: 0.25.
The same measure, in the same setting: as for ATATTACTCAATGACATT, the figure is no less than 1; as for GGGTGAACATCACTTTCC, 0.43; as for ATGCATCACCTTTAATCT, 0.65.
Same read-out and setting: next, ATAATGGTATGGAGGAAG: 0.6; CTTTTAATAAGCACTCTA: no less than 1; AGGCATTAGTAGAGTAAA: 0.92.
ACTGGGTATATTAGCTGC returned a remaining target (mRNA or protein) (fraction of control) of 0.58.
The same measure, in the same setting: as for GTACATGACAGCCAGGAT, the figure is 0.35; as for TTCAATAATAAATTAAAA, no less than 1; as for GTTAGGTGCTTTGGGCCA, 0.13.
Same read-out and setting: as for CCATCCACGATGCCTCCT, the figure is 0.5; as for ACACAAGTAGCACTGGAT, 0.43.
The same measure, in the same setting: as for AGTGAAATAACTTGTAAC, the figure is no less than 1.
In turn, CTAGGGTAAAGTATGATC yielded a remaining target (mRNA or protein) (fraction of control) of no less than 1.
TTGTTATGTCTAAGCAGC displayed a remaining target (mRNA or protein) (fraction of control) of 0.47.
Same read-out and setting: as for TTAGTAGCATTTAGGTAA, the figure is no less than 1; as for TACTTCTCAAATGTGGTT, no less than 1.
The same measure, in the same setting: next, TACATTCACCCAGTTGGC: 0.24.
The same measure, in the same setting: next, CATAGCAAGTACATGACA: 0.46.
In the case of TTCTCATTACTCAAAGCC, the remaining target (mRNA or protein) (fraction of control) was determined as 0.87.
GCCTCCTACAATACAATC gave a remaining target (mRNA or protein) (fraction of control) of no less than 1.
Still for that read-out and setting: next, AAGAAGTGTTGATGAACA: 0.83; TCACATTCTTTGCATCCA: 0.31.

The target in the next data set is IKBKB. The following applies: ASO.
The sequence TTCAAGATATGAACCAGC yielded a remaining target (mRNA or protein) (fraction of control) of 0.54.
As to ATCCTAGGTCAATAATTT, the remaining target (mRNA or protein) (fraction of control) was determined as 0.97.
The same measure, in the same setting: next, CGTGAAACTCTGGTCTTG: 0.48; GAGGAGATTCATCATGGC: 0.97; CTCAGCTGGAAGAAGGCG: 0.4.
As to AATGTCACTCAGCAAGGT, the remaining target (mRNA or protein) (fraction of control) was found to be 0.25.
As to ACTGGTTCAGGTACTTCC, the remaining target (mRNA or protein) (fraction of control) was 0.88.
The same measure, in the same setting: next, GACAACAGTCTTCTCATC: 0.77; GCCAGGACACTGTTAAGA: 0.43.
On the same count and under the same terms, as for GGGCTTCCACTGACAGGA, the figure is 0.18; as for CTGTCCCAAGGCGCTCTT, 0.42.
The same measure, in the same setting: next, TTAACTTGCCGTCTGAAA: 0.8; CACAGGGTAGGTGTGGAT: 0.6.
As for TGCACGGGCTGCCAGTTG, the remaining target (mRNA or protein) (fraction of control) stood at 0.46.
On the same count and under the same terms, as for CTCGAAGCTCTGAATTGC, the figure is 0.48; as for TGTAAGTCCACAATGTCG, 0.61.
For the sequence CTTCGCTAACAACAATGT, the remaining target (mRNA or protein) (fraction of control) is no less than 1.
AGGGTGCAGAGGTTATGT: the remaining target (mRNA or protein) (fraction of control) came to 0.48.
In turn, TTGGCCTTGAGCTGCTGA showed a remaining target (mRNA or protein) (fraction of control) of 0.31.
On the same count and under the same terms, next, GGAGAGGCAGCTGTTGTT: 0.43; GGGAAGGTGACCAGCTCA: 0.3; ACTTCTGCTGCTCCAGTA: 0.58.
Same read-out and setting: as for GCTCAGGTAAGCTGTTGG, the figure is 0.45; as for TTTCACTTCGTTCTCCCG, 0.33; as for TCCTGTACAGCTCCCTTG, 0.13.
The sequence GGGCTCTTGAAGGATACA came in with a remaining target (mRNA or protein) (fraction of control) of 0.39.
In turn, CTGAGTGGCAGGCTTATC displayed a remaining target (mRNA or protein) (fraction of control) of 0.28.
On the same count and under the same terms, as for ACTCAAAGGCCAGGGTGC, the figure is 0.59.
Same read-out and setting: next, GTCAGCCTTCTCATGATC: no less than 1; TGTATTAACCTCTGTTCT: no less than 1; CTGGGATGCCCGTGTCCT: no less than 1.
The sequence TTAAGATGTCATCCAGGG yielded a remaining target (mRNA or protein) (fraction of control) of no less than 1.
Still for that read-out and setting: next, GTTCCATTCAAGTCTTCG: 0.78; GCTTTAGATCCCGATGGA: 0.46.
Still for that read-out and setting: next, CCCCACATGTCTGCGTTG: 0.12; TGAGTCTCATAGGTGATT: no less than 1; TGATGGCAATCTGCTCAC: no less than 1.
Still for that read-out and setting: as for CAGCTGTGCTCTTCTTCT, the figure is 0.75; as for CTTCTGCTTGCAAACCAC, 0.82; as for AGTTTATCTGATGTGATC, 0.8.
